Assay results taken from patent US9833497B2, “Human originated EGF domain proteins and use of the same” (CHENGDU SOURCEBIO LIMITED-LIABILITY COMPANY, priority 2013, dated 2017).

Key:
Assay type in all cases: cell-based
[1] = system: Klebsiella pneumonia; assay: MIC against Gram-negative bacteria: Klebsiella pneumonia; settings: for MIC against K. pneumonia: Klebsiella pneumonia
Procedure: (§1) 1. Gram-negative bacteria, such as E. coli BL21, Pseudomonas aeruginosa, Klebsiella pneumonia, Enterobacter cloacae, Aeromonas hydrophila, Citrobacter diversus, Moraxella catarrhalis, Proteus mirabilis, Proteus vulgaris, Serratia marcescens, etc were streaked on solid LB medium and cultured respectively. Then, typical clones were picked, inoculated into common liquid LB medium respectively, and cultured at 37° C. with shaking at 185 rpm until the McFarland specific turbidity was 0.5. The bacterial culture of each of Gram-negative bacteria was centrifuged at 4000×g for 3 min, the supernatant was discarded, and the thalli were resuspended with fresh LB medium.
(§2) 2. The above-mentioned bacterial suspensions were diluted and inoculated into 96-well plates with the final concentration of the bacterial suspension being 5×10^5 CFU/mL per well.
(§3) 3. Each of the purified human-originated EGF domain proteins (PRT1 to PRT1498 in Table 1) was added to each of the above wells and subjected to two-fold serial dilution in concentration. Three parallel wells were set up for each concentration in the gradient.
(§4) 4. The above-mentioned 96-well plates were placed and cultured at 37° C. in shaking incubator shaking at 175 rpm. […] The minimal inhibitory concentration MIC is defined as the lowest concentration of the recombinant protein at which there is no growth of the bacteria.

[2] = system: Serratia marcescens; assay: MIC against Gram-negative bacteria: Serratia marcescens; settings: for MIC against S. marcescens: Serratia marcescens
Procedure: as §1, §2, §3, §4

[3] = system: E. coli DH5α; assay: Antibacterial activity: MIC and growth curve against E. coli DH5α in 96-well plate; settings: minimal inhibitory concentration against E. coli DH5α; 96-well plate, 5×10^5 CFU/mL, 37° C., judged after 8 h
Procedure: 1. E. coli DH5α was exemplified. E. coli DH5α was streaked and cultured on LB solid medium. Then, a typical clone was picked and inoculated into common LB liquid medium, cultured at 37° C. with shaking at 185 rpm until the logarithmic growth phase was reached (OD600 of about 0.5). The bacterial culture was centrifuged at 4000×g for 3 min, the supernatant was discarded, and the thalli were resuspended with fresh LB medium.
2. The above-mentioned bacterial suspension was diluted and inoculated into a 96-well plate with the total volume of 100 μL per well and a bacterial count of 5×10^5 CFU/mL.
3. The recombinant protein hF VII-EGF1 was added to the above-mentioned wells with the final protein concentration in the well of the highest protein concentration being 50 μg/mL. Basing on this final concentration, a two-fold serial dilution was performed till a protein concentration gradient consisting of 50, 25, and 12.5 μg/mL was set up. Three parallel wells were set up for each concentration in the gradient.
as §4, with “plate was” for “plates were”, “rpm. Samples were taken every 30 min, the absorbance values were determined at 600 nm wavelength under a ultra violet spectrophotometer, and an inhibition curve was plotted.” for “rpm.”
According to the experimental procedures in Example 14, the minimal inhibitory concentrations (MIC, μg/mL) of the other human-originated EGF domain proteins (PRT2 to PRT1498 in Table 1) for E. coli DH5α were determined.

[4] = system: E. coli BL21; assay: MIC against Gram-negative bacteria: E. coli BL21
Procedure: as §1, §2, §3, §4

[5] = system: Pseudomonas aeruginosa; assay: MIC against Gram-negative bacteria: Pseudomonas aeruginosa; settings: for MIC against P. aeruginosa: Pseudomonas aeruginosa
Procedure: as §1, §2, §3, §4

[6] = system: Citrobacter diversus; assay: MIC against Gram-negative bacteria: Citrobacter diversus; settings: for MIC against C. diversus: Citrobacter diversus
Procedure: as §1, §2, §3, §4

[7] = system: Proteus mirabilis; assay: MIC against Gram-negative bacteria: Proteus mirabilis; settings: for MIC against P. mirabilis: Proteus mirabilis
Procedure: as §1, §2, §3, §4

[8] = system: Moraxella catarrhalis; assay: MIC against Gram-negative bacteria: Moraxella catarrhalis; settings: for MIC against M. catarrhalis: Moraxella catarrhalis
Procedure: as §1, §2, §3, §4

[9] = system: Aeromonas hydrophila; assay: MIC against Gram-negative bacteria: Aeromonas hydrophila; settings: for MIC against A. hydrophila: Aeromonas hydrophila
Procedure: as §1, §2, §3, §4

[10] = system: Enterobacter cloacae; assay: MIC against Gram-negative bacteria: Enterobacter cloacae; settings: for MIC against E. cloacae: Enterobacter cloacae
Procedure: as §1, §2, §3, §4

[11] = system: Proteus vulgaris; assay: MIC against Gram-negative bacteria: Proteus vulgaris; settings: for MIC against P. vulgaris: Proteus vulgaris
Procedure: as §1, §2, §3, §4

[12] = 5×10^5 CFU/mL, 10 h cultivation at 37° C.
[13] = E. coli BL21, 5×10^5 CFU/mL, 10 h cultivation at 37° C.
[14] = 96-well plate, 5×10^5 CFU/mL, 37° C., 10 h

For “PRT1391 (PLPVCQEQCSGHGTFLLDAGVCSCDPKWTGSDCS; listed as Homo sapiens)”, the “MIC against K. pneumonia” value [1, 12] was 12.5 µg/mL, the “MIC against S. marcescens” value [2, 12] was 12.5 µg/mL and the MIC [3] was 12.5 µg/mL. The “MIC against E. coli BL21” value [4, 13] was 12.5 µg/mL, the “MIC against P. aeruginosa” value [5, 12] was 12.5 µg/mL and the “MIC against C. diversus” value [6, 12] was 12.5 µg/mL. For the same substance, the “MIC against P. mirabilis” value [7, 12] was 12.5 µg/mL, the “MIC against M. catarrhalis” value [8, 12] was 12.5 µg/mL and the “MIC against A. hydrophila” value [9, 12] was 12.5 µg/mL. For the same substance, the “MIC against E. cloacae” value [10, 12] was 12.5 µg/mL and the “MIC against P. vulgaris” value [11, 12] was 12.5 µg/mL.

For “PRT194 (CRSKCHGHGVCDSNRHCYCEEGWAPPDCT; listed as Homo sapiens)”, the “MIC (μg/mL) K. pneumonia” value ([1]; K. pneumonia, 10 h cultivation at 37° C., 5×10^5 CFU/mL) was 25 µg/mL, the “MIC (μg/mL) S. marcescens” value ([2]; S. marcescens, 10 h cultivation at 37° C., 5×10^5 CFU/mL) was 12.5 µg/mL and the MIC [3] was 12.5 µg/mL. For the same substance, the “MIC (μg/mL) E. coli BL21” value ([4]; E. coli BL21, 10 h cultivation at 37° C., 5×10^5 CFU/mL) was 25 µg/mL, the “MIC (μg/mL) P. aeruginosa” value ([5]; P. aeruginosa, 10 h cultivation at 37° C., 5×10^5 CFU/mL) was 12.5 µg/mL and the “MIC (μg/mL) C. diversus” value ([6]; C. diversus, 10 h cultivation at 37° C., 5×10^5 CFU/mL) was 12.5 µg/mL. The “MIC (μg/mL) P. mirabilis” value ([7]; P. mirabilis, 10 h cultivation at 37° C., 5×10^5 CFU/mL) was 100 µg/mL, the “MIC (μg/mL) M. catarrhalis” value ([8]; M. catarrhalis, 10 h cultivation at 37° C., 5×10^5 CFU/mL) was 100 µg/mL and the “MIC (μg/mL) A. hydrophila” value ([9]; A. hydrophila, 10 h cultivation at 37° C., 5×10^5 CFU/mL) was 12.5 µg/mL. For the same substance, the “MIC (μg/mL) E. cloacae” value ([10]; E. cloacae, 10 h cultivation at 37° C., 5×10^5 CFU/mL) was 12.5 µg/mL and the “MIC (μg/mL) P. vulgaris” value ([11]; P. vulgaris, 10 h cultivation at 37° C., 5×10^5 CFU/mL) was 25 µg/mL.

In the case of “PRT988 (DVDECQLQPNACHNGGTCFNTLGGHSCVCVNGWTGESCS; listed as Homo sapiens)”, the MIC ([1]; K. pneumonia, 10 h cultivation at 37° C.) was 50 µg/mL, the MIC ([2]; S. marcescens, 10 h cultivation at 37° C.) was 12.5 µg/mL and the MIC [3] was 12.5 µg/mL. The MIC ([4]; E. coli BL21, 10 h cultivation at 37° C.) was 50 µg/mL, the MIC ([5]; P. aeruginosa, 10 h cultivation at 37° C.) was 12.5 µg/mL and the MIC ([6]; C. diversus, 10 h cultivation at 37° C.) was 12.5 µg/mL. It also gave an MIC ([7]; P. mirabilis, 10 h cultivation at 37° C.) of 12.5 µg/mL, an MIC ([8]; M. catarrhalis, 10 h cultivation at 37° C.) of 50 µg/mL and an MIC ([9]; A. hydrophila, 10 h cultivation at 37° C.) of 50 µg/mL. The MIC ([10]; E. cloacae, 10 h cultivation at 37° C.) was 12.5 µg/mL and the MIC ([11]; P. vulgaris, 10 h cultivation at 37° C.) was 50 µg/mL.

“PRT649 (DVDECLEPNVCANGDCSNLEGSYMCSCHKGYTRTPDHKHCR; listed as Homo sapiens)” was tested, and the “MIC K. pneumonia” value [1, 14] was 12.5 µg/mL, the “MIC S. marcescens” value [2, 14] was 25 µg/mL and the MIC [3] was 50 µg/mL. For the same substance, the “MIC E. coli BL21” value [4, 14] was 12.5 µg/mL, the “MIC P. aeruginosa” value [5, 14] was 50 µg/mL and the “MIC C. diversus” value [6, 14] was 50 µg/mL. The “MIC P. mirabilis” value [7, 14] was 25 µg/mL, the “MIC M. catarrhalis” value [8, 14] was 12.5 µg/mL and the “MIC A. hydrophila” value [9, 14] was 12.5 µg/mL. For the same substance, the “MIC E. cloacae” value [10, 14] was 50 µg/mL and the “MIC P. vulgaris” value [11, 14] was 50 µg/mL.

For “PRT1380 (SQRSCPRGCSQRGRCEGGRCVCDPGYTGDDC; listed as Homo sapiens)”, the “MIC against K. pneumonia” value [1, 12] was 50 µg/mL, the “MIC against S. marcescens” value [2, 12] was 50 µg/mL and the MIC [3] was 25 µg/mL. For the same substance, the “MIC against E. coli BL21” value [4, 13] was 50 µg/mL, the “MIC against P. aeruginosa” value [5, 12] was 12.5 µg/mL and the “MIC against C. diversus” value [6, 12] was 12.5 µg/mL. For the same substance, the “MIC against P. mirabilis” value [7, 12] was 50 µg/mL, the “MIC against M. catarrhalis” value [8, 12] was 50 µg/mL and the “MIC against A. hydrophila” value [9, 12] was 50 µg/mL. For the same substance, the “MIC against E. cloacae” value [10, 12] was 12.5 µg/mL and the “MIC against P. vulgaris” value [11, 12] was 50 µg/mL.
